Source: paper PMC6576746, “Rational discovery of dual-indication multi-target PDE/Kinase inhibitor for precision anti-cancer therapy using structural systems pharmacology” (PLoS Computational Biology, 2019)

What was measured:
Test in all cases: biochemical
Design in all cases: DiscoverX KinomeScan competition binding assay across human kinases; per cent of control at 10 and 100 uM
Details in all cases: competition binding, % of control; read-out: Percent Control (100 uM Levosimendan)
[1] = biological target: TAOK3 (Homo sapiens, UniProt Q9H2K8)
In short: (§1)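 KinomeScan competition binding was run across a human kinase panel at 10 μM and 100 μM levosimendan. Results are %control = (test − positive control)/(negative control − positive control) × 100.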

[2] = biological target: CDK3 (Homo sapiens, UniProt Q00526)
In short: as §1

[3] = biological target: PIK3CG (Homo sapiens, UniProt P48736)
In short: as §1

[4] = biological target: ITK (Homo sapiens, UniProt Q08881)
In short: as §1

[5] = biological target: NEK1 (Homo sapiens, UniProt Q96PY6)
In short: as §1

[6] = biological target: HIPK3 (Homo sapiens, UniProt Q9H422)
In short: as §1

[7] = biological target: EGFR(L858R) (Homo sapiens, UniProt P00533, L858R)
In short: as §1

[8] = biological target: T1, RPS6KA4(Kin.Dom.2-C-terminal) (Homo sapiens, UniProt O75676)
T1 construct: Kin.Dom.2-C-terminal
In short: as §1

[9] = biological target: T2, p38-alpha (Homo sapiens, UniProt Q16539)
T2 construct: gene MAPK14
In short: as §1

[10] = biological target: T3, TIE2 (Homo sapiens, UniProt Q02763)
T3 construct: gene TEK
In short: as §1

[11] = biological target: NEK10 (Homo sapiens, UniProt Q6ZWH5)
In short: as §1

[12] = biological target: T4, PIK4CB (Homo sapiens, UniProt Q9UBF8)
T4 construct: gene PI4KB
In short: as §1

[13] = biological target: T5, ABL1(H396P)-phosphorylated (Homo sapiens, UniProt P00519, H396P)
T5 construct: phosphorylated
In short: as §1

[14] = biological target: NEK9 (Homo sapiens, UniProt Q8TD19)
In short: as §1

[15] = biological target: FGFR3(G697C) (Homo sapiens, UniProt P22607, G697C)
In short: as §1

[16] = biological target: ZAP70 (Homo sapiens, UniProt P43403)
In short: as §1

[17] = biological target: T6, ABL1(Q252H)-phosphorylated (Homo sapiens, UniProt P00519, Q252H)
T6 construct: phosphorylated
In short: as §1

[18] = biological target: MAP3K4 (Homo sapiens, UniProt Q9Y6R4)
In short: as §1

[19] = biological target: T7, MKK7 (Homo sapiens, UniProt O14733)
T7 construct: gene MAP2K7
In short: as §1

NEK1, sequence (Q96PY6 whole entry): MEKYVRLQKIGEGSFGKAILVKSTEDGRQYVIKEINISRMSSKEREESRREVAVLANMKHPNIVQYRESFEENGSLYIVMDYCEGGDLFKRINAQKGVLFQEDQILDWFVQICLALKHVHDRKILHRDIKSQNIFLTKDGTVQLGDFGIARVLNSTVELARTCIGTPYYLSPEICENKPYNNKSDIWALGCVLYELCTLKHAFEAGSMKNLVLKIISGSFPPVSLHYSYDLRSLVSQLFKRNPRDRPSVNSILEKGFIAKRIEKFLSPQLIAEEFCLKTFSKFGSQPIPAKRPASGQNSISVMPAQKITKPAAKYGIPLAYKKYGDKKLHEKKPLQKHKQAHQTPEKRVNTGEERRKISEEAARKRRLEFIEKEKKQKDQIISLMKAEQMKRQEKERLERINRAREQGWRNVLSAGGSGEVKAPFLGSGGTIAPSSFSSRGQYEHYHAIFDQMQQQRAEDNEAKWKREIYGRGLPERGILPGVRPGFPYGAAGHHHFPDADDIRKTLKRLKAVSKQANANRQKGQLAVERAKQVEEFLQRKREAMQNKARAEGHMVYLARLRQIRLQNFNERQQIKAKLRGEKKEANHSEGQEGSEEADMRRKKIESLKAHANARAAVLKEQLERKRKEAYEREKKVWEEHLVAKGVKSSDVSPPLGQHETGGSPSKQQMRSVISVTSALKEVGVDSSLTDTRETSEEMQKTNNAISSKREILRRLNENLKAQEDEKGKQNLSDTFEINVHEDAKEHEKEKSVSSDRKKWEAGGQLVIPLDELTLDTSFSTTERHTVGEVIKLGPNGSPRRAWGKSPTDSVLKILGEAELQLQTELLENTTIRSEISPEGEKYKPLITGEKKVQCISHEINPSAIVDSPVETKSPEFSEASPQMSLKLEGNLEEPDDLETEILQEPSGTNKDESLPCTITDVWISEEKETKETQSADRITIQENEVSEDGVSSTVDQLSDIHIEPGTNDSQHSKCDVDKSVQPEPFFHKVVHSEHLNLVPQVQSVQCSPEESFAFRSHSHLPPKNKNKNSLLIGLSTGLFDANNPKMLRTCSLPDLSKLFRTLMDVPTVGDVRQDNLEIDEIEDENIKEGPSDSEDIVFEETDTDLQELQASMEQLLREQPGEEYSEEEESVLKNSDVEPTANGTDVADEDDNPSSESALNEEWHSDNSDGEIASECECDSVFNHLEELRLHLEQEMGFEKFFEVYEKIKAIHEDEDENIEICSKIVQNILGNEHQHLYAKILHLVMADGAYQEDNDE
T7 sequence (O14733 whole entry): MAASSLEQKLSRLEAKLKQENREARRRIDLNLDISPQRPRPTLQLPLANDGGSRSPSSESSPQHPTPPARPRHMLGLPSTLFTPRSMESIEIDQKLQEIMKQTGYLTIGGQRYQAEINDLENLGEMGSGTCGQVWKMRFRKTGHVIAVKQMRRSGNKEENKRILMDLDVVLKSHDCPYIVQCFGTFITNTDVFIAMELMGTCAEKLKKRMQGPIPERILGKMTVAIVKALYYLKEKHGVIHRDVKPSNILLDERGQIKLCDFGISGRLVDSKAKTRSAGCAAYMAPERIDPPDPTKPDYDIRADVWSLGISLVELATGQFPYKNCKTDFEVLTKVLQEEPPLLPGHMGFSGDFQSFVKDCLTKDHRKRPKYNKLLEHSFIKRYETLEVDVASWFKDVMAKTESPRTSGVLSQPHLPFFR
FGFR3(G697C), sequence (P22607 whole entry G697C): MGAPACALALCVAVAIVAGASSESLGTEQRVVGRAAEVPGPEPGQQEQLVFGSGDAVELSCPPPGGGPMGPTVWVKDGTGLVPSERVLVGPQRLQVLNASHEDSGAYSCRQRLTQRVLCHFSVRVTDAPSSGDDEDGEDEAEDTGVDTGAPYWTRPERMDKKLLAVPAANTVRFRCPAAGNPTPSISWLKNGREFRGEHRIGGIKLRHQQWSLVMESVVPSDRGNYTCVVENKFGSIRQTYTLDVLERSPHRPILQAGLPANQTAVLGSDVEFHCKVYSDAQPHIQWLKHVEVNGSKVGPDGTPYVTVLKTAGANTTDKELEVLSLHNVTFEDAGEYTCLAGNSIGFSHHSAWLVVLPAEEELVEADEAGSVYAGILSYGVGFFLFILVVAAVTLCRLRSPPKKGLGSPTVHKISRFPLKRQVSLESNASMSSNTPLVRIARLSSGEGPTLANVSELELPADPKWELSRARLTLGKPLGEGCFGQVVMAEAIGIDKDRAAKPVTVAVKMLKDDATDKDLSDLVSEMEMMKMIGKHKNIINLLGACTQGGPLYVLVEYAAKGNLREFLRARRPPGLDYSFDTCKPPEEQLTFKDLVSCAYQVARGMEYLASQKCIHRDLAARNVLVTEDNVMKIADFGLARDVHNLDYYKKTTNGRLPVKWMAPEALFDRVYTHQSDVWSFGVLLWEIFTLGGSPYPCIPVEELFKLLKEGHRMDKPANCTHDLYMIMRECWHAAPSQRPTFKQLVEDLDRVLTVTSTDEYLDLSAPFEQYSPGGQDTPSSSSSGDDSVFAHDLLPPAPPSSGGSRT
EGFR(L858R), sequence (P00533 whole entry L858R): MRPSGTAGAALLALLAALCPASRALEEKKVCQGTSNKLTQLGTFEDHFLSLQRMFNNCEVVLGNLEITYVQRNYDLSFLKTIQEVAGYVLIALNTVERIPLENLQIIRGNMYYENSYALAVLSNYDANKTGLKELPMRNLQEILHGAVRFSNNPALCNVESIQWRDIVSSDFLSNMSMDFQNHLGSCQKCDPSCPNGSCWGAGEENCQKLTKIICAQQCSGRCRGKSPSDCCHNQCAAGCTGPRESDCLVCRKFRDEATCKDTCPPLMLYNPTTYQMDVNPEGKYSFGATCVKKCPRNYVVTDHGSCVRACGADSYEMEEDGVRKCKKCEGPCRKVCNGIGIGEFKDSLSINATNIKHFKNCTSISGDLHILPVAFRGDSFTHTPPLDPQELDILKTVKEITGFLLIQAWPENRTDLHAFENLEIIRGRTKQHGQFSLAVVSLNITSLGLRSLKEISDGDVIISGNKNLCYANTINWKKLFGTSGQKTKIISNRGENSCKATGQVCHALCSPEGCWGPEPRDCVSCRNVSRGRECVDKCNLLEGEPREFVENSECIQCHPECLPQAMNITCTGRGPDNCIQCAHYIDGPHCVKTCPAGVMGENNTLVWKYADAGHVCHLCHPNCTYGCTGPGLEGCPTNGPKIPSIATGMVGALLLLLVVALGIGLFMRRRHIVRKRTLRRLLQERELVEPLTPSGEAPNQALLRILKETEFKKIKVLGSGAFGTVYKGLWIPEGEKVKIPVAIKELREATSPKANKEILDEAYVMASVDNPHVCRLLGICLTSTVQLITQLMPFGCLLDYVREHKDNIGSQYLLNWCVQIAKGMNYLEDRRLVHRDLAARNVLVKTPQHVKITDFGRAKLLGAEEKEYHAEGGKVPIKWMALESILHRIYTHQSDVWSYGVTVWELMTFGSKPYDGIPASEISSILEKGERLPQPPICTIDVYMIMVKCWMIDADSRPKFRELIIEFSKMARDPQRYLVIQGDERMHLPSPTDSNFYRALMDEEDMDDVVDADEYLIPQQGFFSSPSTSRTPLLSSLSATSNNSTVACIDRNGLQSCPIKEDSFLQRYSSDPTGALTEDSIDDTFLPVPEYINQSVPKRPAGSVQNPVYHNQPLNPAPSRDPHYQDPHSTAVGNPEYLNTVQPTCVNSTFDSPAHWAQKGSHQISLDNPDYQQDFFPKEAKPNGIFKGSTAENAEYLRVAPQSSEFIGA
CDK3, sequence (Q00526 whole entry): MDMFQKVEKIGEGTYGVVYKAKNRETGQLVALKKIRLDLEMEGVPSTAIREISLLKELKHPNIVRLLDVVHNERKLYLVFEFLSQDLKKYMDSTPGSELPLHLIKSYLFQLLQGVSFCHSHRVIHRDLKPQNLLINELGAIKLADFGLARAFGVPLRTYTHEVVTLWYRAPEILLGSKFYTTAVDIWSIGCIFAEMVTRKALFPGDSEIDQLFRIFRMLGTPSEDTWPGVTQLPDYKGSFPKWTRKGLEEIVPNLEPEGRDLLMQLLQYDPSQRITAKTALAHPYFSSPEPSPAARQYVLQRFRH
T4 sequence (Q9UBF8 whole entry): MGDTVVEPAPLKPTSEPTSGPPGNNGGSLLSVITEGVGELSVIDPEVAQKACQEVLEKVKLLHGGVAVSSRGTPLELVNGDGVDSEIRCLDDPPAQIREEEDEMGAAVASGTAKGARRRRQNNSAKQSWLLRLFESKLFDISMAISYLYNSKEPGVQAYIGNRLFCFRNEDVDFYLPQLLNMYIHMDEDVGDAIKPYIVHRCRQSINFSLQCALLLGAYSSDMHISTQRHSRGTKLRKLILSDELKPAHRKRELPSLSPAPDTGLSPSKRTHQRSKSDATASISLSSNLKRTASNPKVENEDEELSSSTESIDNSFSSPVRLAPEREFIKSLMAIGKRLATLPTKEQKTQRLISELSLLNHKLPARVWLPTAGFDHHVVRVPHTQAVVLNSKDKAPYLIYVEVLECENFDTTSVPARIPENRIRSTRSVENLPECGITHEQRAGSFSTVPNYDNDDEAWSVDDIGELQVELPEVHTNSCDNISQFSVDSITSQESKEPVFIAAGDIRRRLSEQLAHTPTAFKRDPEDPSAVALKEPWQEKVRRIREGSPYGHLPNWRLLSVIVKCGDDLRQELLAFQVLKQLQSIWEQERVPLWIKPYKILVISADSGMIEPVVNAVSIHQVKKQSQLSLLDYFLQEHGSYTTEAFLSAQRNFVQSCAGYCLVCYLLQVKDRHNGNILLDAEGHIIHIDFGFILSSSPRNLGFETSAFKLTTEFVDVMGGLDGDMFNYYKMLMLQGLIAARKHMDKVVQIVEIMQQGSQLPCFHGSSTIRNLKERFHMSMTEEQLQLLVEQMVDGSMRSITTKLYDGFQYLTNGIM

remaining binding at 100 µM [1]: 100% | remaining binding at 100 µM [2]: 100% | remaining binding at 100 µM [3]: 80% | remaining binding at 100 µM [4]: 86% | remaining binding at 100 µM [5]: 100% | remaining binding at 100 µM [6]: 100% | remaining binding at 100 µM [7]: 63% | remaining binding at 100 µM [8]: 95% | remaining binding at 100 µM [9]: 97% | remaining binding at 100 µM [10]: 78% | remaining binding at 100 µM [11]: 100% | remaining binding at 100 µM [12]: 100% | remaining binding at 100 µM [13]: 68% | remaining binding at 100 µM [15]: 80% | remaining binding at 100 µM [16]: 74% | remaining binding at 100 µM [17]: 68% | remaining binding at 100 µM [18]: 58% | remaining binding at 100 µM [19]: 100%
Structure (SMILES): C[C@@H]1CC(=O)NN=C1c1ccc(NN=C(C#N)C#N)cc1 [levosimendan]
remaining binding at 100 µM [14]: 56%
